Values quoted from earlier work in patent US7271157B2, “A1 adenosine receptor agonists” (CV Therapeutics, Inc., priority 2004, dated 2007).
Values belong to the compound of their own block, whether it stands above or below them.

Assays:
[1] = molecular target: T1, A1-adenosine receptor (Homo sapiens, UniProt P30542)
T1 sequence (P30542 1-326): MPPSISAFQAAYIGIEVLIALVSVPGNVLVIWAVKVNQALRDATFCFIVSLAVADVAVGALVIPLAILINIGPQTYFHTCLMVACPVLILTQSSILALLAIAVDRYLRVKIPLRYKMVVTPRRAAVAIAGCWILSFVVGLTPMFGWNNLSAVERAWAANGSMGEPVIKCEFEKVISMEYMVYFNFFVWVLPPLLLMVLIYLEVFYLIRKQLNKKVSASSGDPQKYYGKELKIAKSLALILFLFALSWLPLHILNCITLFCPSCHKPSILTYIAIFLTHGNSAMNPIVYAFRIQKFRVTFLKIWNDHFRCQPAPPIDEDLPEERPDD

[2] = test system: seizures induced by DMCM; conditions: experimental models of epilepsy

Compound: OC1CCCC1Nc1ncnc2c1ncn2[C@@H]1O[C@H](CSc2ccccc2F)[C@@H](O)[C@H]1O (mixture of isomers) [(4S,5S,2R,3R)-5-[(2-fluorophenylthio)methyl]-2-{6-[(2-hydroxycyclopentyl)amino]-purin-9-yl}oxolane-3,4-diol]
A1-adenosine receptor agonist character and selectivity [1]: highly selective partial A1-adenosine receptor agonist

half-life: less than 10 sec
Compound: Nc1ncnc2c1ncn2[C@@H]1O[C@H](CO)[C@@H](O)[C@H]1O [adenosine]

Compound: Cc1ccccc1CNc1ncnc2c1ncn2[C@@H]1O[C@H](CO)[C@@H](O)[C@H]1O [metrifudil]
anticonvulsant activity against DMCM-induced seizures [2]: potent anticonvulsant
